{"source": "patent US20240300886A1", "about": "“ARYLCYCLOHEXYLAMINE DERIVATIVES AND THEIR USE IN THE TREATMENT OF PSYCHIATRIC DISORDERS” (GILGAMESH PHARMACEUTICALS, INC., priority 2021, published 2024)", "key": {"[1]": {"biological_target": "serotonin transporter (SERT) (Homo sapiens (Human), UniProt P31645)", "test": "SERT competition radioligand binding ([3H]imipramine)", "details": "Human recombinant (CHO cells), 2.0 nM [3H]imipramine", "description": "Disclosed compounds were tested for their binding affinity at the serotonin transporter (SERT) using a competition radioligand binding assay (Eurofins Cerep). Assay conditions are described in Table 16 below."}, "[2]": {"test": "Stability in liver microsomes (Example 21), CD-1 mouse", "format": "in vitro ADME", "details": "male, pH 7.4, CD-1 Mouse liver microsomes, 0.5 mg/mL protein", "description": "(§1) General Procedure. Briefly, test compounds (final concentration 1 μM) were incubated in duplicate with liver microsomes from male animals of the indicated species (final protein concentration 0.5 mg/mL) in 50 mM sodium phosphate buffer (pH 7.4) with or without NADPH (1 mM). Total incubation volume was 500 μL. At 0, 5, 15, 30, and 60 min, aliquots of 50 μL were withdrawn, quenched with acetonitrile (150 μL), and analyzed for parent compound remaining using a fit-for-purpose LC-MS/MS method. Intrinsic clearance and half-life were calculated. Clearance values below zero were rounded to zero."}, "[3]": {"test": "Stability in liver microsomes (Example 21), SD rat", "format": "in vitro ADME", "details": "male, pH 7.4, 0.5 mg/mL protein", "description": "as §1"}, "[4]": {"test": "Stability in liver microsomes (Example 21), beagle dog", "format": "in vitro ADME", "details": "male, pH 7.4, 0.5 mg/mL protein", "description": "as §1"}, "[5]": {"test": "Stability in liver microsomes (Example 21), Gottingen minipig", "format": "in vitro ADME", "details": "male, pH 7.4, 0.5 mg/mL protein", "description": "as §1"}, "[6]": {"test": "Stability in liver microsomes (Example 21), cynomolgus monkey", "format": "in vitro ADME", "details": "male, pH 7.4, 0.5 mg/mL protein", "description": "as §1"}, "[7]": {"biological_target": "recombinant human NMDA receptor (GRIN1/GRIN2B) (Homo sapiens (Human), UniProt Q05586+Q13224)", "sequence (Q13224 whole entry, looked up, other chains not shown)": "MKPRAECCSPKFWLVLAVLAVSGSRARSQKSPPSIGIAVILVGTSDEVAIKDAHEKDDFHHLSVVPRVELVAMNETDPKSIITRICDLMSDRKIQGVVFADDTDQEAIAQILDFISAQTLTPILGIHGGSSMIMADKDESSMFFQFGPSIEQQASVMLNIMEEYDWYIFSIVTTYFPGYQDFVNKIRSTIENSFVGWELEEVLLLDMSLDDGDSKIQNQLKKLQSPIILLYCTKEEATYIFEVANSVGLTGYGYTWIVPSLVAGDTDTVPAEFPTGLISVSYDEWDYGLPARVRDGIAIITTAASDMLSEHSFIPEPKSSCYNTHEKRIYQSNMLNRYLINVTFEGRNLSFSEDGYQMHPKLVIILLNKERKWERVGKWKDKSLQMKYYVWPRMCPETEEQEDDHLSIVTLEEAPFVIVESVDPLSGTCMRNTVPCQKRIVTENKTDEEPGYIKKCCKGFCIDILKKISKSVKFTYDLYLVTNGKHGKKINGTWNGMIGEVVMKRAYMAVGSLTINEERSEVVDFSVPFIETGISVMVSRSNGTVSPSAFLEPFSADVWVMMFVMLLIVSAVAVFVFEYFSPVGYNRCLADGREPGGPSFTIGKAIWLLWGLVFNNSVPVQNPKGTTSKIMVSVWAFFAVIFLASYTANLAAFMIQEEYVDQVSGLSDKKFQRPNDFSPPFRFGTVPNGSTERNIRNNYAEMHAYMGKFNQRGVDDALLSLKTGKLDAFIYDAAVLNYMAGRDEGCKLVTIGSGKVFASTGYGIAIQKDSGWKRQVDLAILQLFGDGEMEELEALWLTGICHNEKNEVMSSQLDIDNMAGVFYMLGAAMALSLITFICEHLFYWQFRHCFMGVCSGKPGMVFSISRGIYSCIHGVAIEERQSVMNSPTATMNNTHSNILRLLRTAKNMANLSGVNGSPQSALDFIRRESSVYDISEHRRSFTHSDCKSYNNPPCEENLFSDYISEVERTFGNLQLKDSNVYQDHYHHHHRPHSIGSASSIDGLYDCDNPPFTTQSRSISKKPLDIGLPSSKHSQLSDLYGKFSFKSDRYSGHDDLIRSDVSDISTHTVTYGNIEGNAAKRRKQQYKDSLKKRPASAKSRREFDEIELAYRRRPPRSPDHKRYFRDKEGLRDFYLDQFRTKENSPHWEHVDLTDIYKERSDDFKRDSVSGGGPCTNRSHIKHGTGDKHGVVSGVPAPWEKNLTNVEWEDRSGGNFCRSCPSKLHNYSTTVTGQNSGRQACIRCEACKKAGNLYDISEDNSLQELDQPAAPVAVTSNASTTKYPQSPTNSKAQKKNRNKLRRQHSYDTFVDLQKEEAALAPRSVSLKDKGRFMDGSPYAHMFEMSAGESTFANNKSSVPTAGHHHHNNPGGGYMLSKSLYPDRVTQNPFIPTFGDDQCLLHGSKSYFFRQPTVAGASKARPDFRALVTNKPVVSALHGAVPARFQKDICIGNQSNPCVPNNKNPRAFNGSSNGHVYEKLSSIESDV", "test": "Unblocking kinetics at the NMDA receptor in Xenopus laevis oocytes (two-electrode voltage clamp)", "format": "cell-based", "details": "compounds applied at 3×IC50, -70 mV, n ≥ 5", "description": "Compounds 2R, 2S, and 2-(2-fluorophenyl)-2-(methylamino)cyclohexan-1-one 2-F-DCK were tested for unblocking kinetics at the NMDA receptor in Xenopus laevis oocytes expressing recombinant human NMDA receptor (GRIN1/GRIN2B) (Table 22).\nExperimental Procedure. Oocytes were harvested from adult Xenopus laevis and incubated in 96 well plates for two to four days prior to recordings. Plasmids containing cDNA encoding for human NMDA receptor subunits GRIN1 and GRIN2B were transcribed using the mMessage mMachine T7 transcription kit (Ambion, USA). The Roboocyte automated injection system was used for injection of cRNA coding for hNMDA receptor subunits at a concentration of 100 ng/μL per subunit. Oocytes were clamped to a holding potential of −70 mV and induced currents after compound application were sampled at 200 Hz at room temperature. Agonist induced currents were recorded with a two-electrode voltage clamp. To determine the unblocking kinetics, glutamate and glycine (3 and 10 μM, respectively) were applied to the oocytes and the current recorded for 90 s. Then, compounds were applied at 3×IC50 for 120 s and the currents recorded."}, "[8]": {"test": "Comparative oral pharmacokinetics of 2R, 2S and 2-F-DCK in mice", "format": "in vivo, C57BL/6 mice", "details": "10 mg/kg po; for half-life: read-out: t1/2 (po)", "description": "Animals. Male C57BL/6 mice were used in these studies. Aminals were randomly assigned to treatment groups and were fasted for 4 h before dosing.\nDrugs. Test compounds were dissolved in a vehicle consisting of normal saline, They were then administered orally (po) at a dose of 10 mg/kg (calculated based on freebase) and at a volume of 10 mL/kg body weight.\nSample Collection and Bioanalysis. Blood samples (approximately 60 μL) were collected under light isoflurane anesthesia (Surgivet®) from the retro orbital plexus at 0.08, 0.25, 0.5, 1, 2, 4, 8, and 24 h (4 animals per time point). Immediately after blood collection, plasma was harvested by centrifugation at 4,000 rpm for 10 min at 4° C. and samples were stored at −70±10° C. until bioanalysis. Following blood collection, animals were immediately sacrificed, the abdominal vena-cava was cut open, and the whole body was perfused from the heart using 10 mL of normal saline, and brain samples were collected from all animals. After isolation, brain samples were rinsed three times in ice-cold normal saline (for 5-10 seconds/rinse using ˜5-10 mL normal saline in disposable petri dish for each rinse) and dried on blotting paper. Brain samples were homogenized using ice-cold phosphate-buffered saline (pH 7.4). Total homogenate volume was three times the tissue weight. All homogenates were stored at −70±10° C. until bioanalysis. For bioanalysis, 25 μL aliquots of plasma/brain study samples or spiked plasma/brain calibration standards were added to individual pre-labeled micro-centrifuge tubes followed by 100 μL of an internal standard solution (glipizide, 500 ng/mL in acetonitrile) except for blanks, where 100 μL of acetonitrile was added. Samples were vortexed for 5 minutes and then centrifuged for 10 minutes at 4,000 rpm at 4° C. Following centrifugation, 100 μL of each clear supernatant was transferred to a 96 well plate and analyzed with a fit-for-purpose LC-MS/MS method, with authentic samples of each analyte used for calibration and identification.\nData Analysis. Pharmacokinetic parameters were estimated using the non-compartmental analysis tool of Phoenix® WinNonlin software (Ver 8.0)."}}, "note": "Like-named read-outs stand apart in the source and are kept apart here."}
{"smiles": "CNC1(c2ccccc2F)CCCCC1=O", "note": "(stereo not shown) [Compound 2-F-DCK, 2-(2-fluorophenyl)-2-(methylamino)cyclohexan-1-one, reference compound]", "values": [{"measurement": "Ki", "setting": "[1]", "value": 40, "unit": "µM"}, {"measurement": "microsomal CLint at 1 μM", "setting": "[2]", "value": 10.9, "unit": "µL/min/mg"}, {"measurement": "microsomal CLint at 1 μM", "setting": "[3]", "value": 111, "unit": "µL/min/mg"}, {"measurement": "microsomal CLint at 1 μM", "setting": "[4]", "value": 30, "unit": "µL/min/mg"}, {"measurement": "microsomal CLint at 1 μM", "setting": "[5]", "value": 56.2, "unit": "µL/min/mg"}, {"measurement": "microsomal CLint at 1 μM", "setting": "[6]", "value": 212, "unit": "µL/min/mg"}, {"measurement": "Unblocking T1/2 ± SEM", "setting": "[7]", "value": "1.44 ± 0.21", "unit": "min"}, {"measurement": "Cmax", "setting": "[8]; male, C57BL/6, mouse brain", "value": 1670, "unit": "ng/g"}, {"measurement": "half-life", "setting": "[8]; male, C57BL/6, mouse brain", "value": 41, "unit": "min"}, {"measurement": "Cmax", "setting": "[8]; male, C57BL/6, mouse plasma", "value": 1960, "unit": "ng/mL"}, {"measurement": "AUC(0-t)", "setting": "[8]; male, C57BL/6, mouse plasma, read-out: AUC0-last (po) (converted)", "value": 1150, "unit": "ng·h/mL"}, {"measurement": "half-life", "setting": "[8]; male, C57BL/6, mouse plasma", "value": 69, "unit": "min"}, {"measurement": "AUC0-last (po)", "setting": "[8]; mouse brain", "value": 59119, "unit": "ng·min/g"}]}
